Where no end group is shown, it is not given here. fluorescent dye = not defined here
What was measured:
PyMT tumors = assay: Tumor homing of intravenously injected fluorescent CREKA peptide in MMTV-PyMT mice; type: in vivo; settings: intravenous injection; minutes to hours after the injection; fluorescent dye at N-terminus
Description: (§1) (A). Balb/c nude mice bearing MDA-MB-435 human breast cancer xenograft tumors or transgenic MMTV PyMT mice with breast tumors were intravenously injected with 0.1 mg of fluorescein-CREKA. The animals were sacrificed by perfusion 24 hours post-injection and tissue sections were examined by fluorescent microscopy. Right panel, control organs of MDA-MB 435 tumor mice. Magnification 200×. (B). Whole animal imaging of MDA-MB-435 tumor mouse injected 6 hours earlier with 30 μg of Alexa Fluor 647-labeled CREKA. Maestro imaging system (Cambridge Research Inc., Woburn, Mass.) was used to acquire and process the image. The arrow points to the tumor and the arrowhead to the urinary bladder.
A tumor-homing peptide was used to construct targeted nanoparticles. […] The most frequently represented peptide sequence in the selected phage preparation was CREKA (cys-arg-glu-lys-ala; SEQ ID NO:1). The CREKA peptide was synthesized with a fluorescent dye attached to the N-terminus and the in vivo distribution of the peptide was studied in tumor-bearing mice. […] The peptide formed a distinct meshwork in the tumor stroma (FIG. 5), and it also highlighted the blood vessels in the tumors. […]

[1] = test system: MDA-MB-435 human breast cancer xenografts; assay: Tumor homing of intravenously injected fluorescent CREKA peptide in MDA-MB-435 xenograft mice; type: in vivo
Description: as §1
A tumor-homing peptide was used to construct targeted nanoparticles. […] The most frequently represented peptide sequence in the selected phage preparation was CREKA (cys-arg-glu-lys-ala; SEQ ID NO:1). The CREKA peptide was synthesized with a fluorescent dye attached to the N-terminus and the in vivo distribution of the peptide was studied in tumor-bearing mice. […] The peptide formed a distinct meshwork in the tumor stroma (FIG. 5), and it also highlighted the blood vessels in the tumors.
In vivo screening of a peptide library with the general structure of CX7C (SEQ ID NO: 4), where C is cysteine and X is any amino acid, was carried out as described (Oh 2004) using 65- to 75-day-old transgenic MMTV PyMT mice (Hutchinson 2000). These mice express the polyoma virus middle T antigen (MT) under the transcriptional control of the mouse mammary tumor virus (MMTV), leading to the induction of multi-focal mammary tumors in 100% of carriers. MDA-MB-435 tumors in nude mice and peptide synthesis have been described (Laakkonen 2002; Laakkonen 2004). B16F1 murine melanoma tumors were grown in fibrinogen null mice (Suh 1995) and their normal littermates and used when they reached 0.5-1 cm in size (Pilch 2006).

B16F1 melanomas = assay: CREKA peptide homing to B16F1 melanomas in fibrinogen null mice and normal littermates; type: in vivo; settings: intravenous injection
Description: Fluorescein-conjugated CREKA peptide (200 μg per mouse) was injected into mice bearing syngeneic B16 melanoma tumors. Representative microscopic fields are shown to illustrate homing of fluorescein-CREKA to fibrin-like structures in tumors in wild type mice (A, arrow) and lack of homing in fibrinogen null mice (B). […] (D) Dextran-coated iron oxide nanoparticles conjugated with fluorescein-CREKA bind to clotted plasma proteins, and the binding is inhibited by free CREKA peptide. […] Magnification: A-B, 200×; D, 600×.
Tumors contain a meshwork of clotted plasma proteins in the tumor stroma and the walls of vessels, but no such meshwork is detectable in normal tissues (Dvorak 1985; Abe 1999; Pilch 2006). The mesh-like pattern produced by the CREKA peptide in tumors prompted the study of whether clotted plasma proteins can be the target of this peptide. The peptide was tested in fibrinogen knockout mice, which lack the fibrin meshwork in their tumors. […] Its structure makes it an attractive peptide to use in nanoparticle targeting because, unlike other clot-binding peptides, which are cyclic 10 amino-acid peptides (Pilch 2006), CREKA is linear and contains only 5 amino acids. Moreover, the sulfhydryl group of the single cysteine residue is not required to provide binding activity and can be used to couple the peptide to other moieties. […]

mouse plasma clots = assay: Nanoparticle binding to mouse plasma clots in vitro
Description: (§2) Phage binding to clotted plasma proteins was determined as described (Pilch 2006). CREKA-SPIO and control SPIO were added to freshly formed plasma clots in the presence or absence of free CREKA peptide. After 10 min incubation, the clots were washed 4 times in PBS, transferred to a new tube and digested in 100 μl concentrated nitric acid. The digested material was diluted in 2 ml distilled water and the iron concentration was determined using inductively coupled plasma-optical emission spectroscopy (ICP-OES, PerkinElmer, Norwalk, Conn.).

human plasma clots = assay: Nanoparticle binding to human plasma clots in vitro
Description: as §2

effect of free peptide on CREKA-SPIO binding to plasma clots (mouse plasma clots): inhibited
effect of free peptide on CREKA-SPIO binding to plasma clots (human plasma clots): inhibited
Substance: cys-arg-glu-lys-ala ({fluorescent dye}-CREKA; reading uncertain; also: dye not identified, printed as cys-arg-glu-lys-ala) [CREKA peptide, studied in vivo with a fluorescent dye attached to the N-terminus]
peptide detection in tumors (PyMT tumors): readily detectable
peptide detection in tumors ([1]; intravenous injection, minutes to hours after the injection, fluorescent dye at N-terminus): readily detectable
peptide detection in normal tissues ([1]; intravenous injection, tumor-bearing mice): essentially undetectable
whole body imaging, peptide accumulation ([1]; peptide labeled with Alexa 647, 6 hours after injection of 30 μg): peptide accumulation in the breast cancer xenografts, and in the bladder
peptide accumulation in tumors (B16F1 melanomas; fibrinogen null mice): failed to accumulate
peptide accumulation in tumors (B16F1 melanomas; normal littermates of the null mice): formed a brightly fluorescent meshwork

Reference: patent publication US9101671B2, “Methods and compositions related to clot binding compounds” (Sanford-Burnham Medical Research Institute, priority 2007, dated 2015)
